In ChEMBL document CHEMBL5528067, “From Synergy to Monotherapy: Discovery of Novel 2,4,6-Trisubstituted Triazine Hydrazone Derivatives with Potent Antifungal Potency In Vitro and In Vivo” (J Med Chem, 2024):
Values after ≈ are worked out from the molar mass of the structure shown. Active and inactive are the calls of the source. No cut-off for these calls is given here.

Tests used:
Nakaseomyces glabratus = experiment: Antifungal activity against Candida glabrata 537 assessed as growth inhibition measured after 48 hrs incubation by CLSI based micro-dilution broth method; format: functional
[1] = Hemolytic activity in rabbit Red blood cell assessed as hemolysis rate at 64 microg/ml incubated for 1 hr; format: toxicity, cell-based, Oryctolagus cuniculus, Erythrocyte; conditions: red blood cells, at 64 µg/mL, read-out: Activity
Candida albicans [2] = experiment: Suppression of ALS1 gene expression in Candida albicans SC5314 at 4 to 8 microg/ml by real time RT-PCR analysis; format: functional; conditions: dose 4-8 µg/ml
[Candida] auris [3] = Antifungal activity against FCZ-resistant Candida auris 919 assessed as growth inhibition measured after 48 hrs incubation by CLSI based micro-dilution broth method; format: functional; conditions: Candidozyma auris
Candida albicans [4] = experiment: Antifungal activity against FCZ-resistant Candida albicans strain 901 assessed as growth inhibition in presence of fluconazole measured after 48 hrs incubation by CLSI based micro-dilution broth method; format: functional
Candida albicans [5] = experiment: Induction of cell wall component change in Candida albicans SC5314 assessed as thinner mannan layer at 4 microg/ml measured after 12 hrs by transmission electron microscopy; format: functional, organism-based; conditions: dose 4.0 µg/ml
Candida albicans [6] = experiment: Synergistic antifungal activity against FCZ-resistant Candida albicans strain 901 assessed as fractional inhibitory concentration index measured after 48 hrs in presence of FCZ by CLSI based micro-dilution broth method; format: functional
Candida albicans [7] = experiment: Antibiofilm activity against Candida albicans SC5314 assessed as inhibition of biofilm formation at 4 microg/ml incubated for 24 hrs by XTT/menadione reduction assay relative to control; format: functional; set-up: scale not given: the % may be the effect or the level left; conditions: dose 4 µg/ml
Candida albicans [8] = experiment: Induction of cell wall component change in Candida albicans SC5314 assessed as change in chitin content by measuring […] fluorescence intensity at 4 microg/ml measured after 12 hrs by confocal laser-scanning microscopy; format: functional, organism-based; conditions: dose 4.0 µg/ml
Cryptococcus neoformans [9] = experiment: Antifungal activity against Cryptococcus neoformans 32609 assessed as growth inhibition measured after 48 hrs incubation by CLSI based micro-dilution broth method; format: functional
Candida albicans [10] = experiment: Synergistic antifungal activity against FCZ-resistant Candida albicans strain 904 assessed as fractional inhibitory concentration index measured after 48 hrs in presence of FCZ by CLSI based micro-dilution broth method; format: functional
Candida albicans [11] = experiment: Antifungal activity against FCZ-resistant Candida albicans strain 901 assessed as growth inhibition measured after 48 hrs incubation by CLSI based micro-dilution broth method; format: functional
Candida tropicalis = experiment: Antifungal activity against Candida tropicalis 8915 assessed as growth inhibition measured after 48 hrs incubation by CLSI based micro-dilution broth method; format: functional
[12] = Half life in Sprague-Dawley rat at 2 mg/kg, iv measured upto 24 hrs by LC-MS/MS analysis; format: ADME, organism-based; conditions: in vivo
Candida albicans [13] = experiment: Induction of cell wall component change in Candida albicans SC5314 assessed as swollen inner beta glucan layer at 4 microg/ml measured after 12 hrs by transmission electron microscopy; format: functional, organism-based; conditions: dose 4.0 µg/ml
Candida albicans [14] = experiment: Suppression of SAP2 gene expression in Candida albicans SC5314 assessed as fold increase at 8 microg/ml by real time RT-PCR analysis relative to control; format: functional; conditions: dose 8.0 µg/ml
Candida parapsilosis = experiment: Antifungal activity against Candida parapsilosis 22019 assessed as growth inhibition measured after 48 hrs incubation by CLSI based micro-dilution broth method; format: functional; conditions: Lodderomyces parapsilosis
Candida albicans [15] = experiment: Filamentation inhibitory effect in Candida albicans SC5314 assessed as inhibition of hyphal formation using hyphal-inducing RPMI 1640 medium by measuring shorter hyphal at 2 to 8 microg/ml measured after 8 hrs by inverted imaging microscopy; format: functional, organism-based; conditions: dose 2-8 µg/ml
Candida albicans [16] = experiment: Upregulation of BCR1 gene expression in Candida albicans SC5314 assessed as fold increase at 4 microg/ml by real time RT-PCR analysis relative to control; format: functional; conditions: dose 4.0 µg/ml
Candida albicans [17] = experiment: In vivo antifungal activity against Candida albicans SC5314 infected in po dosed C57BL/6J mouse assessed as reduction in fungal burden in kidney treated once a day for 2 days; format: functional, organism-based; conditions: dose 5-10 mg/kg, time 2.0 day
Candida albicans [18] = experiment: Filamentation inhibitory effect in Candida albicans SC5314 assessed as inhibition of hyphal formation using hyphal-inducing RPMI 1640 medium at 2 to 8 microg/ml measured after 3 hrs by inverted imaging microscopy; format: functional, organism-based; conditions: dose 2-8 µg/ml
Candida albicans [19] = experiment: Effect on ECE1 gene expression in Candida albicans SC5314 at 4 to 8 microg/ml by real time RT-PCR analysis; format: functional; conditions: dose 4-8 µg/ml
Candida albicans [20] = experiment: Suppression of EFG1 gene expression in Candida albicans SC5314 assessed as fold increase at 8 microg/ml by real time RT-PCR analysis relative to control; format: functional; conditions: dose 8.0 µg/ml
[21] = Cytotoxicity against human HUVEC cells assessed as cell viability measured after 24 hrs by CCK-8 assay; format: toxicity, cell-based
Candida albicans [22] = experiment: Antibiofilm activity against Candida albicans SC5314 assessed as inhibition of biofilm formation incubated for 24 hrs by XTT/menadione reduction assay; format: functional, organism-based; conditions: dose 1-64 µg/ml
Candida albicans [23] = experiment: Antifungal activity against FCZ-resistant Candida albicans strain 904 assessed as growth inhibition in presence of fluconazole measured after 48 hrs incubation by CLSI based micro-dilution broth method; format: functional
Candida albicans [24] = experiment: Upregulation of EFG1 gene expression in Candida albicans SC5314 assessed as fold increase at 4 microg/ml by real time RT-PCR analysis relative to control; format: functional; conditions: dose 4.0 µg/ml
[25] = Volume of distribution at steady state in Sprague-Dawley rat at 2 mg/kg, iv measured upto 24 hrs by LC-MS/MS analysis; format: ADME, organism-based; conditions: in vivo, read-out: Vdss
Cryptococcus neoformans [26] = experiment: Antifungal activity against FCZ-resistant Cryptococcus neoformans 32609 assessed as growth inhibition at 0.5 to 4 microg/ml measured at 24 hrs incubation by time growth assay; format: functional, organism-based; conditions: dose 0.5-4 µg/ml
Candida albicans [27] = experiment: Effect on of UME6 gene expression in Candida albicans SC5314 at 4 to 8 microg/ml by real time RT-PCR analysis; format: functional; conditions: dose 4-8 µg/ml
[Candida] auris [28] = Antifungal activity against FCZ-resistant Candida auris 918 assessed as growth inhibition measured after 48 hrs incubation by CLSI based micro-dilution broth method; format: functional; conditions: Candidozyma auris
[29] = Cytotoxicity against human HUVEC cells assessed as cell viability at 16 microg/ml measured after 24 hrs by CCK-8 assay relative to control; format: toxicity, cell-based; conditions: at 16 µg/mL, read-out: Activity
Candida albicans [30] = experiment: Suppression of SAP6 gene expression in Candida albicans SC5314 assessed as fold increase at 8 microg/ml by real time RT-PCR analysis relative to control; format: functional; conditions: dose 8.0 µg/ml
Candida albicans [31] = experiment: Antibiofilm activity against Candida albicans SC5314 assessed as inhibition of biofilm formation at 32 microg/ml incubated for 24 hrs by XTT/menadione reduction assay relative to control; format: functional; set-up: scale not given: the % may be the effect or the level left; conditions: dose 32 µg/ml
Candida albicans [32] = experiment: Induction of cell wall component change in Candida albicans SC5314 assessed as decrease in mannan content by measuring ConA fluorescence intensity at 4 microg/ml measured after 12 hrs by confocal laser-scanning microscopy; format: functional, organism-based; conditions: dose 4.0 µg/ml
[33] = AUC (0 to infinity) in Sprague-Dawley rat at 2 mg/kg, iv measured upto 24 hrs by LC-MS/MS analysis; format: ADME, organism-based; conditions: in vivo
Candida albicans [34] = experiment: Antifungal activity against FCZ-resistant Candida albicans SC5314 assessed as reduction in CFU at 0.5 to 2 microg/ml measured at 24 hrs incubation by time kill assay (reference value: 5 log10 CFU/ml); format: functional; conditions: dose 0.5-2 µg/ml

SMILES: O=[N+]([O-])c1ccc(O)c(/C=N/Nc2nc(NCc3ccc(F)cc3)nc(NCc3ccc(F)cc3)n2)c1
- MIC80 (Nakaseomyces glabratus): 0.5 µg/mL (≈ 0.987 µM)
- hemolysis at 1 h, 64 microg/ml [1]: 4.92%
- Activity (Candida albicans [2]): Active
- MIC80 ([Candida] auris [3]): 16 µg/mL (≈ 31.6 µM)
- MIC80 (Candida albicans [4]): 0.25 µg/mL
- Activity (Candida albicans [5]): Active
- fractional inhibitory concentration index (FICI) (Candida albicans [6]): 0.25
- Activity (Candida albicans [7]): 40%
- Activity (Candida albicans [8]): Active
- MIC80 (Cryptococcus neoformans [9]): 1 µg/mL (≈ 1.97 µM)
- fractional inhibitory concentration index (FICI) (Candida albicans [10]): 0.38
- MIC80 (Candida albicans [11]): 2 µg/mL (≈ 3.95 µM)
- MIC80 (Candida tropicalis): 2 µg/mL (≈ 3.95 µM)
- half-life [12]: 1.28 h
- Activity (Candida albicans [13]): Active
- fold change (FC) (Candida albicans [14]): 1.22
- MIC80 (Candida parapsilosis): 2 µg/mL (≈ 3.95 µM)
- Activity (Candida albicans [15]): Active
- fold change (FC) (Candida albicans [16]): 1.9
- Activity (Candida albicans [17]): Dose-Dependent Effect
- Activity (Candida albicans [18]): Active
- Activity (Candida albicans [19]): inactive
- fold change (FC) (Candida albicans [20]): 1.52
- IC50 at 24 h [21]: 41.4 µg/mL (≈ 81.7 µM)
- Activity (Candida albicans [22]): Dose-Dependent Effect
- MIC80 (Candida albicans [23]): 0.25 µg/mL
- fold change (FC) (Candida albicans [24]): 2.56
- Vd [25]: 1.08 L/kg
- Activity (Cryptococcus neoformans [26]): Active
- Activity (Candida albicans [27]): inactive
- MIC80 ([Candida] auris [28]): 2 µg/mL (≈ 3.95 µM)
- viability at 24 h, 16 microg/ml [29]: 75.5%
- fold change (FC) (Candida albicans [30]): 2.99
- Activity (Candida albicans [31]): 70%
- Activity (Candida albicans [32]): Active
- AUC(0-inf) [33]: 1470 ng·h/mL
- Activity (Candida albicans [34]): 3.2 log10CFU/ml
